Tests used:
[1] = target: Glutamate carboxypeptidase 2 (Homo sapiens, UniProt Q04609); assay: Inhibition of Glutamate carboxypeptidase II
[2] = target: Bacterial leucyl aminopeptidase (Vibrio proteolyticus, UniProt Q01693); assay: Inhibition of metalloprotease from family M28, Aeromonas proteolytica aminopeptidase
Bacterial leucyl aminopeptidase, sequence (Q01693 whole entry): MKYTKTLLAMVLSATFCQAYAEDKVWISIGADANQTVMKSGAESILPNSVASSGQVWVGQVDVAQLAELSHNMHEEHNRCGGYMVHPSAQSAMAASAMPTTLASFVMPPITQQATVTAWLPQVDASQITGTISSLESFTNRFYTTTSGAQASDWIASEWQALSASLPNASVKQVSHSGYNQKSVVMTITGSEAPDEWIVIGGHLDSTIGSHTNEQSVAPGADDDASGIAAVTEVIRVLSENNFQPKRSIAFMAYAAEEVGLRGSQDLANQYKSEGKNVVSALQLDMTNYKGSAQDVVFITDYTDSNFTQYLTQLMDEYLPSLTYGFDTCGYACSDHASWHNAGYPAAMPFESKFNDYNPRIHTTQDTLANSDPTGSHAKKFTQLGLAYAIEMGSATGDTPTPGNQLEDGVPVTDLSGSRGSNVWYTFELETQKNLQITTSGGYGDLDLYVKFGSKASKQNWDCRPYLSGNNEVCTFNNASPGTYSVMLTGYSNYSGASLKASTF

Glutamate carboxypeptidase 2, sequence (Q04609 whole entry): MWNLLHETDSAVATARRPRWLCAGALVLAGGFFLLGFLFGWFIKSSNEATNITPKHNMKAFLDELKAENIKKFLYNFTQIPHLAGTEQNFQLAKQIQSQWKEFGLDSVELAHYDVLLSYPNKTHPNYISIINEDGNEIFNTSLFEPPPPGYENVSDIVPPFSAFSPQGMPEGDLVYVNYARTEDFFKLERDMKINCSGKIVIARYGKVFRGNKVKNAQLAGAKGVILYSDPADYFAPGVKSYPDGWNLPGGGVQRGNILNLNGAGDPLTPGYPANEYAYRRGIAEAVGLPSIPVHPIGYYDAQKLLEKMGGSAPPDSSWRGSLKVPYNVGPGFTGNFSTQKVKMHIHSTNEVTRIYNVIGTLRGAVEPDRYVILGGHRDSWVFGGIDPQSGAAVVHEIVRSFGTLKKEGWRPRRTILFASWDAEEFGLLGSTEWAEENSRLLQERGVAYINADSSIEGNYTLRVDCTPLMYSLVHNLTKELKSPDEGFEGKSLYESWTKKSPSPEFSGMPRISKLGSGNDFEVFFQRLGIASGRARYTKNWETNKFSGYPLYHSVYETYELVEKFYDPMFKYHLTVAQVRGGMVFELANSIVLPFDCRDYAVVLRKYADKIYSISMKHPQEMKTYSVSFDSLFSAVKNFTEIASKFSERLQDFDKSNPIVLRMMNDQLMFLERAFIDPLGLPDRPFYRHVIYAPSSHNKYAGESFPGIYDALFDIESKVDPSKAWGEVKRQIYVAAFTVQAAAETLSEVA

For `CC(=O)N[C@H](CC(=O)O)C(=O)NO`, the IC50 [1] was > 100 µM.
A Ki [2] of 0.35 µM was found for `CC(C)C[C@H](N)C(=O)NO` in this work.
In the case of `N[C@H](CC(=O)NO)C(=O)O`, the IC50 [1] is reported as > 100 µM.
An IC50 [1] of 0.94 µM was found for `O=C(O)CCC(CCCC(=O)NO)C(=O)O` (stereo not drawn) in this work.
An IC50 [1] of 43 µM was found for `O=C(O)CCC(=O)NO` in this work.
A Ki [2] of 0.002 µM was found for `CC(C)C[C@@H](N)C(=O)NO` in this work.
An IC50 [1] of 1.2 µM was found for `O=C(O)CCC(CCC(=O)NO)C(=O)O` (stereo not drawn) in this work.
With `N[C@@H](CC(=O)NO)C(=O)O` the IC50 [1] was > 100 µM.
An IC50 [1] of 0.082 µM was found for `O=C(O)CCC(CP(=O)(O)Cc1c(F)c(F)c(F)c(F)c1F)C(=O)O` (stereo not drawn) in this work.
An IC50 [1] of 0.22 µM was found for `O=C(O)CCC(CC(=O)NO)C(=O)O` (stereo not drawn) in this work.
With `CC(=O)N[C@@H](CC(=O)O)C(=O)NO` the IC50 [1] was > 100 µM.
An IC50 [1] of 20 µM was found for `O=C(O)CCC(CC(=O)O)C(=O)O` (stereo not drawn) in this work.
`N[C@@H](CCC(=O)NO)C(=O)O` [GLUTAMINE HYDROXAMATE] was tested, and the IC50 [1] was > 100 µM.

— ChEMBL document CHEMBL1136071, “Synthesis and biological evaluation of hydroxamate-Based inhibitors of glutamate carboxypeptidase II” (Bioorg Med Chem Lett, 2003)
